How the values were obtained:
[1] = DPPH radical scavenging assay; format: biochemical; conditions: DPPH in ethanol, 30 min
Procedure: Ascorbic acid was serially diluted to a concentration range of 0.78–100 µg/mL. Ethanol (10%) was used as a blank. Ninety microliters of a […] DPPH (2,2-diphenyl-1-picrylhydrazyl) in ethanol were added to each well. The plates were incubated for 30 min and covered in a layer of foil. Color controls (negative controls) were prepared in the exact same manner as above, but distilled water was added to each well instead of DPPH. The absorbances were measured at a wavelength of 515 nm using a BIO-TEK Power-Wave XS multiplate reader (BIO-TEK Instruments, Winooski, VT, USA). From the absorbances an IC50 value was determined.

[2] = biological target: T1, CYP 19A1 (aromatase) (Homo sapiens, UniProt P11511); assay: Aromatase inhibition assay, tritiated water release, placental microsomes; format: in vitro ADME; conditions: CYP 19A1, substrate androstendione, verbascoside 4-500 µM
T1 construct: from tissue; host or cells: human placental microsomes
T1 sequence (P11511 1-503): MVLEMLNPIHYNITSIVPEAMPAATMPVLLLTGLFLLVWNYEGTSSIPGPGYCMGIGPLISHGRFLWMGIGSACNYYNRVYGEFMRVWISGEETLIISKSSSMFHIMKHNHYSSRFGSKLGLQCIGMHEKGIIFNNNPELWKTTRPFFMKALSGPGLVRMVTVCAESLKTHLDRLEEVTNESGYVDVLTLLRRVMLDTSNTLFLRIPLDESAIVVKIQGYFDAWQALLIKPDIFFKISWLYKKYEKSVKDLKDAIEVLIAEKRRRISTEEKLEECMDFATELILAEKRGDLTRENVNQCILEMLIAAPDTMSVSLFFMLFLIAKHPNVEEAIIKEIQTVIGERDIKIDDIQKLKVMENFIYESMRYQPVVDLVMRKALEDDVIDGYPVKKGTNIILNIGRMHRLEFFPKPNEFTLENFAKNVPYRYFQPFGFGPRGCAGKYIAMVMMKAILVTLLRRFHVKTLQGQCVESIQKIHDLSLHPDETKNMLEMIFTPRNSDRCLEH
Procedure: The relative remaining aromatase activity was calculated by measuring the tritiated water (^3H2O) formed from the aromatization of ^3H-Androst-4-ene,3,17-dione. […] Twenty percent NADPH regenerative system was added to initiate the reaction. Reactions were terminated by the addition of 33% trichloroacetic acid. The supernatant was investigated for tritiated water formed in a scintillation mixture (Optiphase Hisafe 2, Perkin Elmer) using a Wallac microbeta 1450 TriLux liquid scintillation and luminescence counter (PerkinElmer).

[3] = biological target: T2, CYP3A4 (Homo sapiens, UniProt P08684); assay: Inhibition of recombinant CYP oxidation (fluorescent coumarin substrate); format: in vitro ADME; conditions: read-out: Recombinant CYP IC50 (µM) with 95% confidence intervals
T2 construct: purchased BD Biosciences Discovery Labware (Bedford, MA, USA)
T2 sequence (P08684 whole entry): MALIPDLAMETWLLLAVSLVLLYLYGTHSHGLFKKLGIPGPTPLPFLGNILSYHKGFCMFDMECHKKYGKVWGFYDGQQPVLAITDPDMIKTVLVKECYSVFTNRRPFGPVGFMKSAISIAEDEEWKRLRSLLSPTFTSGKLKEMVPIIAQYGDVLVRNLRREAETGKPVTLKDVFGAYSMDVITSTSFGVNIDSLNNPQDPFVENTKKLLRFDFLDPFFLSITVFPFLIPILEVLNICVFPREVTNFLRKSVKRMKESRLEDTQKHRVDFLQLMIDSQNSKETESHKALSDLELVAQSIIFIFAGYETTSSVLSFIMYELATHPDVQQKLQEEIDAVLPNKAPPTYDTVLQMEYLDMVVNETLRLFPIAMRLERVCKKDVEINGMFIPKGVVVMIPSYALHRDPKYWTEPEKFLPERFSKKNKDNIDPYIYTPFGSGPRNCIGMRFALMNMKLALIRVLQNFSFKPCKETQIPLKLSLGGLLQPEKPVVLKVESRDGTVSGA
Procedure: (§1) Incubations were carried out in a total volume of 100 µl of 100 mM Tris-HCl buffer (pH 7.4) in all black, flat-bottom Costar 96-well plates (Corning Incorporated, Corning, NY, USA). […] The samples were then preincubated at 37 °C for 10 min. The reactions were initiated by the addition of NADPH, and 0–10 µM 7-hydroxycoumarin was used as the standard. The fluorescent signal was measured with a Victor^2 1420 multilabel plate counter (PerkinElmer Lifesciences Wallac, Turku, Finland) with excitation and emission wavelengths of 405 and 460 nm, respectively. Fluorescence was monitored every 2 min for 40 min from where the concentration was calculated at the various time points. From these, oxidation rates (µM/min) and the relative remaining activity of the sample at different concentrations were calculated. The data were fit to sigmoidal dose-response curves with nonlinear regression, and IC50 values (the concentration at which the sample reduced the metabolism of the CYP substrate by 50%) were determined. […] This was analyzed using nonlinear equations in Graph Pad Prism, which produced IC50 values and its 95% confidence interval as the results.

[4] = biological target: T3, CYP1B1 (Homo sapiens, UniProt Q16678); assay: as above; format: in vitro ADME; conditions: read-out: Recombinant CYP IC50 (µM) with 95% confidence intervals
T3 construct: purchased BD Biosciences Discovery Labware (Bedford, MA, USA)
T3 sequence (Q16678 1-543): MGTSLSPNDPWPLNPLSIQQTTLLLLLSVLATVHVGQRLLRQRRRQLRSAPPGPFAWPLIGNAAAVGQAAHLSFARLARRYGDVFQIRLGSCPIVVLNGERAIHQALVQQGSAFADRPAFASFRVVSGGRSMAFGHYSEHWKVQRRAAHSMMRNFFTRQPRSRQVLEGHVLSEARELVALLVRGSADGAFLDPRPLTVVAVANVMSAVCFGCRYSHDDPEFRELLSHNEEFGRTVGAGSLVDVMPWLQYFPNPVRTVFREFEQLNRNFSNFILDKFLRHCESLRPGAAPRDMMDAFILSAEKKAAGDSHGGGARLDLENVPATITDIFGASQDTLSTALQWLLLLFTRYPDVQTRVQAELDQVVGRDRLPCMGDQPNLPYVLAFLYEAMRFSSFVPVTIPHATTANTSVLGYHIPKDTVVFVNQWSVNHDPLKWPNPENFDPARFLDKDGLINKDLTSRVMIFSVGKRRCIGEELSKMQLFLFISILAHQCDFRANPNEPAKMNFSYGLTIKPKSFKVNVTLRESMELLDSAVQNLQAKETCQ
Procedure: as §1

[5] = biological target: T4, recombinant CYP 2A6 (Homo sapiens, UniProt P11509); assay: as above; format: in vitro ADME; conditions: CYP 2A6, substrate coumarin, 5 nM recombinant CYP, verbascoside 0.4-50 µM
T4 construct: purchased BD Biosciences Discovery Labware (Bedford, MA, USA)
T4 sequence (P11509 1-494): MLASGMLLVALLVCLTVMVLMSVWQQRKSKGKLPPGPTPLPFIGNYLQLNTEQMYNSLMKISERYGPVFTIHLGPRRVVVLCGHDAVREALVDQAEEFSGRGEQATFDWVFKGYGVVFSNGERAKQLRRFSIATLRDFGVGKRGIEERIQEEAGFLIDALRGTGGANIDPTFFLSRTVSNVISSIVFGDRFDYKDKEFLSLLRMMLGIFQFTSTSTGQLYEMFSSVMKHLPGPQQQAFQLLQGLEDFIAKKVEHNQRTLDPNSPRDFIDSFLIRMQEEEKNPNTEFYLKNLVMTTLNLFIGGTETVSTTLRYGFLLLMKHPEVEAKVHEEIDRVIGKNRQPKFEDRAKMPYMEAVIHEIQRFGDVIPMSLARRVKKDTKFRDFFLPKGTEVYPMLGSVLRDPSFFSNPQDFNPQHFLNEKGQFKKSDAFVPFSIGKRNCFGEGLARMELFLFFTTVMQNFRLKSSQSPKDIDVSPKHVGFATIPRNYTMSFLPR
Procedure: as §1

- IC50 [1]: 2.5 ± 0.02 µM
- Microsomal IC50 (µM) with 95% Confidence Intervals [2]: No inhibition
- Microsomal IC50 (µM) with 95% Confidence Intervals ([2]; listed as verbascoside): did not inhibit
- IC50 at 40 min ([3]; human, recombinant CYP3A4, pH 7.4, probe OCA369 (3-(3-benzyloxo)phenyl-7-methoxycoumarin), 10 µM): > 50 µM
- IC50 [3]: 314 µM
- IC50 at 40 min ([4]; human, recombinant CYP1B1, pH 7.4, probe TFD008 1 (3-(4-phenylacetate)-6-chlorocoumarin), 10 µM): > 50 µM
- IC50 [4]: 86 µM
- Recombinant CYP IC50 (µM) with 95% confidence intervals [5]: No inhibition
- Recombinant CYP IC50 (µM) with 95% confidence intervals ([5]; listed as verbascoside): did not inhibit
Compound: C[C@@H]1O[C@@H](O[C@@H]2[C@@H](O)[C@H](OCCc3ccc(O)c(O)c3)O[C@H](CO)[C@H]2OC(=O)/C=C/c2ccc(O)c(O)c2)[C@H](O)[C@H](O)[C@H]1O [Verbascoside]

— paper PMC6600574 (Molecules, 2019)
